Consider three molecules from ChEMBL document CHEMBL3758072, “Amphiphilic nanoparticles of resveratrol-norcantharidin to enhance the toxicity in zebrafish embryo” (Bioorg Med Chem Lett, 2016).

Series [1] is filed under the species Danio rerio. Kind of series: Cytotoxicity in zebrafish embryo assessed as survival rate at 10 ppm after 80 mins relative to control. Format: functional.
The test system of a further series is Escherichia coli. Kind of series: Antibacterial activity against Escherichia coli assessed as inhibition of microbial growth. In kind it is functional, organism-based.
Series [2] is filed under the species Danio rerio. Briefly: Cytotoxicity in zebrafish embryo assessed as survival rate at 50 ppm after 80 mins relative to control. In kind it is functional.
For series [3], the species on record is Danio rerio. Kind of series: Cytotoxicity in zebrafish embryo assessed as survival rate at 25 ppm after 80 mins relative to control. In kind it is functional.
Series [4] can be described thus: Drug accumulation in zebrafish embryo stomach at 10 ppm incubated for 80 mins. In kind it is ADME, tissue-based, Danio rerio. Conditions: in vivo.
Series [5] in a line: Drug accumulation in zebrafish embryo skin at 10 ppm incubated for 80 mins. Format: ADME, Danio rerio, Zone of skin. The settings on record: in vivo.
Series [6] is described as follows: Drug accumulation in zebrafish embryo intestinal villi at 10 ppm incubated for 80 mins. In kind it is ADME, Danio rerio. Conditions: in vivo.
Series [7] in a line: Drug accumulation in zebrafish embryo muscle at 10 ppm incubated for 80 mins. Format: ADME, Danio rerio, Muscle tissue. Conditions: in vivo.

Calls of active or inactive are those of the source. The calls are words filed in the database; no cut-off is given here.

With `O=C1OC(=O)C2C3CCC(O3)C12` (stereo unspecified) [DEMETHYL-CANTHARIDIN], the results for the Survival in the series filed under Danio rerio [1], in the series filed under Danio rerio [2] and in the series listed under Danio rerio [3] were 99.2%, 90.8% and 96.7%, respectively. Also, in the series with Escherichia coli, the “growth inhibition (GI)” value is “inactive”.
Take `CCN(CC)c1ccc2c(-c3ccccc3C(=O)NCCNC(=O)[C@@H]3[C@H](C(=O)OC)[C@H]4CC[C@@H]3O4)c3ccc(=[N+](CC)CC)cc-3oc2c1`: the Drug uptake entry in series [4] is “Active”; in series [5], “Not Active”; in series [6], “Active”; in series [7], “Not Active”.
Regarding `COC(=O)[C@H]1[C@@H](C(=O)Oc2ccc(/C=C/c3cc(O)cc(O)c3)cc2)[C@@H]2CC[C@H]1O2`, the figures for the Survival in the series filed under Danio rerio [1], in the series filed under Danio rerio [2] and in the series listed under Danio rerio [3] were 99.2%, 95.8% and 99.2%, respectively.
